# ChEMBL document CHEMBL4396926, “Design, Synthesis and Anticancer Evaluation of New Substituted Thiophene-Quinoline Derivatives” (Bioorg Med Chem, 2019)
# How the values were obtained:
# HepG2 [1] = assay: Cytotoxicity against human HepG2 cells assessed as cell growth inhibition at 3.125 to 100 uM incubated for 72 hrs and measured after 2 hrs by microplate reader based WST-1 assay relative to control; type: functional
# HeLa [2] = assay: Cytotoxicity against human HeLa cells assessed as cell growth inhibition at 3.125 to 100 uM incubated for 72 hrs and measured after 2 hrs by microplate reader based WST-1 assay relative to control; type: functional
# HCT-116 [3] = assay: Cytotoxicity against human HCT116 cells assessed as cell growth inhibition at 3.125 to 100 uM incubated for 72 hrs and measured after 2 hrs by microplate reader based WST-1 assay relative to control; type: functional
# MCF7 [4] = assay: Cytotoxicity against human MCF7 cells assessed as cell growth inhibition at 3.125 to 100 uM incubated for 72 hrs and measured after 2 hrs by microplate reader based WST-1 assay relative to control; type: functional
# HeLa [5] = assay: Induction of apoptosis in human HeLa cells assessed as increase in caspase 3 activation by measuring fold increase in caspase 3 level by fluorescence based solid phase sandwich ELISA; type: functional
# MCF7 [6] = assay: Induction of apoptosis in human MCF7 cells assessed as increase in caspase 3 activation by measuring fold increase in caspase 3 level by fluorescence based solid phase sandwich ELISA; type: functional
# HepG2 [7] = assay: Cytotoxicity against human HepG2 cells assessed as increase in growth inhibition by measuring decrease in cell viability incubated for 72 hrs and measured after 2 hrs by microplate reader based WST-1 assay; type: functional
# HeLa [8] = assay: Cytotoxicity against human HeLa cells assessed as increase in growth inhibition by measuring decrease in cell viability incubated for 72 hrs and measured after 2 hrs by microplate reader based WST-1 assay; type: functional
# HCT-116 [9] = assay: Cytotoxicity against human HCT116 cells assessed as increase in growth inhibition by measuring decrease in cell viability incubated for 72 hrs and measured after 2 hrs by microplate reader based WST-1 assay; type: functional
# MCF7 [10] = assay: Cytotoxicity against human MCF7 cells assessed as increase in growth inhibition by measuring decrease in cell viability incubated for 72 hrs and measured after 2 hrs by microplate reader based WST-1 assay; type: functional; settings: Homo sapiens, MCF7; read-out: IC50
# [11] = target: T1, Epidermal growth factor receptor (Homo sapiens, UniProt P00533); assay: Inhibition of EGFR-TK in human HeLa cells overexpressing EGFR incubated for 18 to 24 hrs by kinase assay; type: cell-based
# T1 sequence (P00533 whole entry): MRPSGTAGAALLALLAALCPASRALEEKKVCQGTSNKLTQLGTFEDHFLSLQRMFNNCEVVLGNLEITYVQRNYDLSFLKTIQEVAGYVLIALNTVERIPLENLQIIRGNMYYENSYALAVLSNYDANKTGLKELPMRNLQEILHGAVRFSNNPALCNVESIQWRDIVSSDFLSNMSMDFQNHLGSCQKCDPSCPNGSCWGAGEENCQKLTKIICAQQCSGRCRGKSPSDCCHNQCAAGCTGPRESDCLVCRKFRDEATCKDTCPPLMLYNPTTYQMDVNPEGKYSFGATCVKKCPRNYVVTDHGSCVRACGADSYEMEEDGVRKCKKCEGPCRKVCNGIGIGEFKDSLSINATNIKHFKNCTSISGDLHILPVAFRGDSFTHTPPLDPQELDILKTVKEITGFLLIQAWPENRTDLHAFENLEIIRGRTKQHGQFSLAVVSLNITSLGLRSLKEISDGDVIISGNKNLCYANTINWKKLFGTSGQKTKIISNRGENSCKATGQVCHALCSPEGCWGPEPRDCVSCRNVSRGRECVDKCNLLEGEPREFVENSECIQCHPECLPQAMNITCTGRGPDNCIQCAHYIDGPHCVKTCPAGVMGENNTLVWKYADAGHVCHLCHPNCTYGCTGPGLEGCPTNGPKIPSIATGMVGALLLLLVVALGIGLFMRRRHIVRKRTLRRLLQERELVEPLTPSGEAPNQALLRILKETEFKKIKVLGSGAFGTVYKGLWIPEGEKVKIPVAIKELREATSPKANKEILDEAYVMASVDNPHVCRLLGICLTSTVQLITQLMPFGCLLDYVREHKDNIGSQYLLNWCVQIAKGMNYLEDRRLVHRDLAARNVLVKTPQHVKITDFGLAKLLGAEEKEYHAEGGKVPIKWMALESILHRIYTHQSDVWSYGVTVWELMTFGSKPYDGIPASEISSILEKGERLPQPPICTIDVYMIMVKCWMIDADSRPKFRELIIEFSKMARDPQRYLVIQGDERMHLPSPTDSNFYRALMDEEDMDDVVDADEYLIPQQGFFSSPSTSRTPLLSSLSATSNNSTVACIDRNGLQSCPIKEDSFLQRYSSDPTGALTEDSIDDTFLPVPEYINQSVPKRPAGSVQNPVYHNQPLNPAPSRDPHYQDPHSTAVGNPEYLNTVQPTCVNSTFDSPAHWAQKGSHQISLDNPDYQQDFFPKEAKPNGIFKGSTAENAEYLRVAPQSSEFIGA
# HeLa [12] = assay: Induction of apoptosis in human HeLa cells assessed as increase in caspase 9 activation by measuring fold increase in caspase 9 level by fluorescence based solid phase sandwich ELISA; type: functional
# DNA topoisomerase II [13] = target: T2, DNA topoisomerase II (Homo sapiens, UniProt P11388+Q02880); assay: Inhibition of DNA topoisomerase 2 in human HeLa cells at 25 uM incubated for 18 to 24 hrs by kinase assay relative to control; type: cell-based
# DNA topoisomerase II [14] = target: T2, DNA topoisomerase II; assay: Inhibition of DNA topoisomerase 2 in human HeLa cells at 5 uM incubated for 18 to 24 hrs by kinase assay relative to control; type: cell-based
# DNA topoisomerase II [15] = target: T2, DNA topoisomerase II; assay: Inhibition of DNA topoisomerase 2 in human HeLa cells at 1 uM incubated for 18 to 24 hrs by kinase assay relative to control; type: cell-based
# DNA topoisomerase II [16] = target: T2, DNA topoisomerase II; assay: Inhibition of DNA topoisomerase 2 in human HeLa cells at 0.2 uM incubated for 18 to 24 hrs by kinase assay relative to control; type: cell-based
# DNA topoisomerase II [17] = target: T2, DNA topoisomerase II; assay: Inhibition of DNA topoisomerase 2 in human HeLa cells incubated for 18 to 24 hrs by kinase assay; type: cell-based
# [18] = target: T1, Epidermal growth factor receptor; assay: Inhibition of EGFR-TK in human MCF7 cells overexpressing EGFR incubated for 18 to 24 hrs by kinase assay; type: cell-based
# MCF7 [19] = assay: Induction of apoptosis in human MCF7 cells assessed as increase in caspase 9 activation by measuring fold increase in caspase 9 level by fluorescence based solid phase sandwich ELISA; type: functional
# MCF7 [20] = assay: Cell cycle arrest in human MCF7 cells assessed as accumulation at G0/G1 phase at IC50 after 24 hrs by propidium iodide staining based FACS analysis (reference value: 67.39%); type: functional
# MCF7 [21] = assay: Cell cycle arrest in human MCF7 cells assessed as accumulation at S phase at IC50 after 24 hrs by propidium iodide staining based FACS analysis (reference value: 27.13%); type: functional
# MCF7 [22] = assay: Cell cycle arrest in human MCF7 cells assessed as accumulation at G2/M phase at IC50 after 24 hrs by propidium iodide staining based FACS analysis (reference value: 4.82%); type: functional
# MCF7 [23] = assay: Cell cycle arrest in human MCF7 cells assessed as accumulation at pre G1/apoptotic phase at IC50 after 24 hrs by propidium iodide staining based FACS analysis (reference value: 0.66%); type: functional
# MCF7 [24] = assay: Induction of apoptosis in human MCF7 cells after 24 hrs by Annexin V-FITC/propidium iodide staining-based FACS analysis; type: functional, cell-based
# MCF7 [25] = assay: Induction of apoptosis in human MCF7 cells assessed as viable cells after 24 hrs by Annexin V-FITC/propidium iodide staining-based FACS analysis (reference value: 99.34%); type: functional
# MCF7 [26] = assay: Induction of apoptosis in human MCF7 cells assessed as early apoptotic cells after 24 hrs by Annexin V-FITC/propidium iodide staining-based FACS analysis (reference value: 0.29%); type: functional
# MCF7 [27] = assay: Induction of apoptosis in human MCF7 cells assessed as late apoptotic cells after 24 hrs by Annexin V-FITC/propidium iodide staining-based FACS analysis (reference value: 0.22%); type: functional
# MCF7 [28] = assay: Induction of apoptosis in human MCF7 cells assessed as necrotic cells after 24 hrs by Annexin V-FITC/propidium iodide staining-based FACS analysis (reference value: 0.15%); type: functional
# DNA topoisomerase II [29] = target: T2, DNA topoisomerase II; assay: Inhibition of DNA topoisomerase 2 in human MCF7 cells at 25 uM incubated for 18 to 24 hrs by kinase assay relative to control; type: cell-based
# DNA topoisomerase II [30] = target: T2, DNA topoisomerase II; assay: Inhibition of DNA topoisomerase 2 in human MCF7 cells at 1 uM incubated for 18 to 24 hrs by kinase assay relative to control; type: cell-based
# DNA topoisomerase II [31] = target: T2, DNA topoisomerase II; assay: Inhibition of DNA topoisomerase 2 in human MCF7 cells at 0.2 uM incubated for 18 to 24 hrs by kinase assay relative to control; type: cell-based
# DNA topoisomerase II [32] = target: T2, DNA topoisomerase II; assay: Inhibition of DNA topoisomerase 2 in human MCF7 cells incubated for 18 to 24 hrs by kinase assay; type: cell-based
# DNA topoisomerase II [33] = target: T2, DNA topoisomerase II; assay: Inhibition of DNA topoisomerase 2 in human MCF7 cells at 5 uM incubated for 18 to 24 hrs by kinase assay relative to control; type: cell-based
# [34] = Homo sapiens, HepG2, read-out: IC50
# [35] = Homo sapiens, HeLa, read-out: IC50
# [36] = Homo sapiens, HCT-116, read-out: IC50
smiles,measurement,setting,value
COc1ccc(-c2cc(COC(c3cccs3)c3cc4ccccc4nc3Cl)on2)cc1OC (centres undefined),growth inhibition (GI),HepG2 [1],<10%
same,growth inhibition (GI),HeLa [2],<10%
same,growth inhibition (GI),HCT-116 [3],<10%
same,growth inhibition (GI),MCF7 [4],<10%
CNC(=O)c1cc(Oc2ccc(NC(=O)Nc3ccc(Cl)c(C(F)(F)F)c3)cc2)ccn1 [SORAFENIB],fold change (FC),HeLa [5],35.5
same,fold change (FC),MCF7 [6],34.2
COc1ccc(-n2cc(COC(c3cccs3)c3cc4ccccc4nc3Cl)nn2)cc1 (centres undefined),growth inhibition (GI),HepG2 [1],<10%
same,growth inhibition (GI),HeLa [2],<10%
same,growth inhibition (GI),HCT-116 [3],32.52%
same,growth inhibition (GI),MCF7 [4],<10%
OC(c1cccs1)c1cc2ccccc2nc1Cl (centres undefined),IC50,HepG2 [7]; [34],80.8 µM
same,IC50,HeLa [8]; [35],17.5 µM
same,IC50,HCT-116 [9]; [36],69.3 µM
same,IC50,MCF7 [10],80.6 µM
same,IC50,[11],6.3 µM
same,fold change (FC),HeLa [5],12.8
same,fold change (FC),HeLa [12],72.6
same,inhibition,DNA topoisomerase II [13],80.7%
same,inhibition,DNA topoisomerase II [14],45%
same,inhibition,DNA topoisomerase II [15],20%
same,inhibition,DNA topoisomerase II [16],3.85%
same,IC50,DNA topoisomerase II [17],4.95 µM
Clc1nc2ccccc2cc1C(OCc1ccc(Br)cc1)c1cccs1 (centres undefined),growth inhibition (GI),HepG2 [1],<10%
same,growth inhibition (GI),HeLa [2],30.89%
same,growth inhibition (GI),HCT-116 [3],21.98%
same,growth inhibition (GI),MCF7 [4],<10%
Cc1cc(C)cc(-c2cc(COC(c3cccs3)c3cc4ccccc4nc3Cl)on2)c1 (centres undefined),growth inhibition (GI),HepG2 [1],<10%
same,growth inhibition (GI),HeLa [2],<10%
same,growth inhibition (GI),HCT-116 [3],<10%
same,growth inhibition (GI),MCF7 [4],<10%
Clc1ccc(COC(c2cccs2)c2cc3ccccc3nc2Cl)cc1 (centres undefined),growth inhibition (GI),HepG2 [1],<10%
same,growth inhibition (GI),HeLa [2],30.41%
same,growth inhibition (GI),HCT-116 [3],<10%
same,growth inhibition (GI),MCF7 [4],47.94%
same,IC50,HepG2 [7]; hepg2,Not Active
same,IC50,HeLa [8]; hela,Not Active
same,IC50,HCT-116 [9]; hct-116,Not Active
same,IC50,MCF7 [10],28.3 µM
same,IC50,[18],3.66 µM
same,fold change (FC),MCF7 [6],33.7
same,fold change (FC),MCF7 [19],29
same,Activity,MCF7 [20],44.28%
same,Activity,MCF7 [21],15.35%
same,Activity,MCF7 [22],23.14%
same,Activity,MCF7 [23],17.05%
same,Activity,MCF7 [24],Dose-dependent effect
same,Activity,MCF7 [25],82.72%
same,Activity,MCF7 [26],6.69%
same,Activity,MCF7 [27],8.67%
same,Activity,MCF7 [28],1.6%
same,inhibition,DNA topoisomerase II [29],93.2%
same,inhibition,DNA topoisomerase II [30],63.3%
same,inhibition,DNA topoisomerase II [31],36.3%
same,IC50,DNA topoisomerase II [32],0.44 µM
same,inhibition,DNA topoisomerase II [33],84.7%
O=c1[nH]cc(F)c(=O)[nH]1 [FLUOROURACIL],IC50,HepG2 [7]; [34],> 100 µM
same,IC50,HeLa [8]; [35],20.4 µM
same,IC50,HCT-116 [9]; [36],63.9 µM
same,IC50,MCF7 [10],> 100 µM
same,fold change (FC),HeLa [12],94.4
same,fold change (FC),MCF7 [19],26 - 26.1
CC[C@@]1(O)C(=O)OCc2c1cc1n(c2=O)Cc2cc3c(CN(C)C)c(O)ccc3nc2-1 [TOPOTECAN],inhibition,DNA topoisomerase II [15],66.5%
same,inhibition,DNA topoisomerase II [16],32%
same,IC50,DNA topoisomerase II [17],0.73 µM
same,inhibition,DNA topoisomerase II [29],92.8%
same,IC50,DNA topoisomerase II [32],0.48 µM
same,inhibition,DNA topoisomerase II [33],85.6%
Cc1ccc(-n2cc(COC(c3cccs3)c3cc4ccccc4nc3Cl)nn2)cc1 (centres undefined),growth inhibition (GI),HepG2 [1],18.78%
same,growth inhibition (GI),HeLa [2],<10%
same,growth inhibition (GI),HCT-116 [3],13.03%
same,growth inhibition (GI),MCF7 [4],<10%
FC(F)(F)c1cccc(COC(c2cccs2)c2cc3ccccc3nc2Cl)c1 (centres undefined),growth inhibition (GI),HepG2 [1],<10%
same,growth inhibition (GI),HeLa [2],42.42%
same,growth inhibition (GI),HCT-116 [3],23.22%
same,growth inhibition (GI),MCF7 [4],52.9%
same,IC50,HepG2 [7]; hepg2,Not Active
same,IC50,HeLa [8]; hela,Not Active
same,IC50,HCT-116 [9]; hct-116,Not Active
same,IC50,MCF7 [10],101 µM
